PubChem BioAssay AID2060611 (Molecular Pharmacology Branch, DTP, NCI, 2025)

Test system: 628569-122-R-J1-PDC complex spheroid viability
Assay: Anticancer human tumor 628569-122-R-J1-PDC patient-derived head and neck squamous carcinoma cell line growth inhibition [CLK]
Settings: for IC50: curve of first compound; for viability, T/C: stronger effect = lower value
Procedure, shortened: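 Multi-cell-type spheroids combined patient-derived tumor cells with HUVEC endothelial cells and human mesenchymal stem cells. Paired agents were dosed in half-log steps down from about clinical Cmax, or from 10 microM where Cmax was unknown.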

[1] = second compound 0.0316 µM, first compound 0.0316 µM
[2] = second compound 0.0316 µM, first compound 0.1 µM
[3] = second compound 0.0316 µM, first compound 0.316 µM
[4] = second compound 0.0316 µM, first compound 1 µM
[5] = second compound 0.0316 µM, first compound 3.16 µM
[6] = second compound 0.0316 µM, first compound 10 µM
[7] = second compound 0.1 µM, first compound 0.0316 µM
[8] = second compound 0.1 µM, first compound 0.1 µM
[9] = second compound 0.1 µM, first compound 0.316 µM
[10] = second compound 0.1 µM, first compound 1 µM
[11] = second compound 0.1 µM, first compound 3.16 µM
[12] = second compound 0.1 µM, first compound 10 µM
[13] = second compound 0.316 µM, first compound 0.0316 µM
[14] = second compound 0.316 µM, first compound 0.1 µM
[15] = second compound 0.316 µM, first compound 0.316 µM
[16] = second compound 0.316 µM, first compound 1 µM
[17] = second compound 0.316 µM, first compound 3.16 µM
[18] = second compound 0.316 µM, first compound 10 µM
[19] = second compound 1 µM, first compound 0.0316 µM
[20] = second compound 1 µM, first compound 0.1 µM
[21] = second compound 1 µM, first compound 0.316 µM
[22] = second compound 1 µM, first compound 1 µM
[23] = second compound 1 µM, first compound 3.16 µM
[24] = second compound 1 µM, first compound 10 µM
[25] = second compound 3.16 µM, first compound 0.0316 µM
[26] = second compound 3.16 µM, first compound 0.1 µM
[27] = second compound 3.16 µM, first compound 0.316 µM
[28] = second compound 3.16 µM, first compound 1 µM
[29] = second compound 3.16 µM, first compound 3.16 µM
[30] = second compound 3.16 µM, first compound 10 µM
[31] = second compound 10 µM, first compound 0.0316 µM
[32] = second compound 10 µM, first compound 0.1 µM
[33] = second compound 10 µM, first compound 0.316 µM
[34] = second compound 10 µM, first compound 1 µM
[35] = second compound 10 µM, first compound 3.16 µM
[36] = second compound 10 µM, first compound 10 µM
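Also: spheroids exposed to agents for seven days before readout.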
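For viability, T/C in this document: 100% = DMSO vehicle control viability.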

CC(=O)O[C@H]1C(=O)[C@@]2(C)[C@H]([C@H](OC(=O)c3ccccc3)[C@]3(O)C[C@H](OC(=O)[C@H](O)[C@@H](NC(=O)c4ccccc4)c4ccccc4)C(C)=C1C3(C)C)[C@]1(OC(C)=O)CO[C@@H]1C[C@@H]2O + CNC(=O)c1ccc(Nc2nc(OC3CCCC3)c3c(-c4ccc5nc(C)oc5c4)c[nH]c3n2)c(OC)c1
IC50 (second compound 0.0316 µM): < 31.6 nM | IC50 (second compound 0.1 µM): < 31.6 nM | IC50 (second compound 0.316 µM): < 31.6 nM | IC50 (second compound 1 µM): < 31.6 nM | IC50 (second compound 3.16 µM): < 31.6 nM | IC50 (second compound 10 µM): < 31.6 nM | viability, T/C [1]: 34.6% | viability, T/C [2]: 33.5% | viability, T/C [3]: 36.6% | viability, T/C [4]: 35.9% | viability, T/C [5]: 36.5% | viability, T/C [6]: 59% | viability, T/C [7]: 50.4% | viability, T/C [8]: 47.4% | viability, T/C [9]: 49.6% | viability, T/C [10]: 55.5% | viability, T/C [11]: 67.9% | viability, T/C [12]: 68.4% | viability, T/C [13]: 43.1% | viability, T/C [14]: 55.3% | viability, T/C [15]: 59.7% | viability, T/C [16]: 63.9% | viability, T/C [17]: 72.9% | viability, T/C [18]: 72.9% | viability, T/C [19]: 41.4% | viability, T/C [20]: 53% | viability, T/C [21]: 55.2% | viability, T/C [22]: 57.6% | viability, T/C [23]: 57.9% | viability, T/C [24]: 68.5% | viability, T/C [25]: 44.8% | viability, T/C [26]: 51.6% | viability, T/C [27]: 56.8% | viability, T/C [28]: 56.6% | viability, T/C [29]: 60.9% | viability, T/C [30]: 64.7% | viability, T/C [31]: 41.2% | viability, T/C [32]: 47% | viability, T/C [33]: 55.3% | viability, T/C [34]: 64.2% | viability, T/C [35]: 65% | viability, T/C [36]: 69.9%

CCc1c2c(nc3ccc(O)cc13)-c1cc3c(c(=O)n1C2)COC(=O)[C@]3(O)CC + CNC(=O)c1ccc(Nc2nc(OC3CCCC3)c3c(-c4ccc5nc(C)oc5c4)c[nH]c3n2)c(OC)c1
IC50 (second compound 0.0316 µM): 326 nM | IC50 (second compound 0.1 µM): 61.5 nM | IC50 (second compound 0.316 µM): 10.7 nM | IC50 (second compound 1 µM): < 3.16 nM | IC50 (second compound 3.16 µM): < 3.16 nM | IC50 (second compound 10 µM): < 3.16 nM | viability, T/C (second compound 0.0316 µM, first compound 0.00316 µM): 62.2% | viability, T/C (second compound 0.0316 µM, first compound 0.01 µM): 47.5% | viability, T/C [1]: 53.5% | viability, T/C [2]: 46.6% | viability, T/C [3]: 51.5% | viability, T/C [4]: 11.4% | viability, T/C (second compound 0.1 µM, first compound 0.00316 µM): 56.6% | viability, T/C (second compound 0.1 µM, first compound 0.01 µM): 51.1% | viability, T/C [7]: 55.2% | viability, T/C [8]: 43.1% | viability, T/C [9]: 42% | viability, T/C [10]: 13.9% | viability, T/C (second compound 0.316 µM, first compound 0.00316 µM): 54.2% | viability, T/C (second compound 0.316 µM, first compound 0.01 µM): 49.4% | viability, T/C [13]: 42.8% | viability, T/C [14]: 44.4% | viability, T/C [15]: 31.9% | viability, T/C [16]: 21.8% | viability, T/C (second compound 1 µM, first compound 0.00316 µM): 38.8% | viability, T/C (second compound 1 µM, first compound 0.01 µM): 42.2% | viability, T/C [19]: 40.2% | viability, T/C [20]: 34.2% | viability, T/C [21]: 26.1% | viability, T/C [22]: 11.1% | viability, T/C (second compound 3.16 µM, first compound 0.00316 µM): 39.8% | viability, T/C (second compound 3.16 µM, first compound 0.01 µM): 40% | viability, T/C [25]: 36.4% | viability, T/C [26]: 39.2% | viability, T/C [27]: 29.7% | viability, T/C [28]: 7.37% | viability, T/C (second compound 10 µM, first compound 0.00316 µM): 38.7% | viability, T/C (second compound 10 µM, first compound 0.01 µM): 41.8% | viability, T/C [31]: 37.1% | viability, T/C [32]: 33.5% | viability, T/C [33]: 24.5% | viability, T/C [34]: 6.76%

COc1cccc2c1C(=O)c1c(O)c3c(c(O)c1C2=O)CC(O)(C(=O)CO)CC3OC1CC(N)C(O)C(C)O1 (stereo not given) + CNC(=O)c1ccc(Nc2nc(OC3CCCC3)c3c(-c4ccc5nc(C)oc5c4)c[nH]c3n2)c(OC)c1
IC50 (second compound 0.0316 µM): 479 nM | IC50 (second compound 0.1 µM): 446 nM | IC50 (second compound 0.316 µM): 373 nM | IC50 (second compound 1 µM): 31.6 nM | IC50 (second compound 3.16 µM): < 31.6 nM | IC50 (second compound 10 µM): < 31.6 nM | viability, T/C [1]: 65.1% | viability, T/C [2]: 56.3% | viability, T/C [3]: 88.3% | viability, T/C [4]: 12.9% | viability, T/C [5]: 19.5% | viability, T/C [6]: 11.4% | viability, T/C [7]: 49.7% | viability, T/C [8]: 62.8% | viability, T/C [9]: 91.8% | viability, T/C [10]: 5.99% | viability, T/C [11]: 11.4% | viability, T/C [12]: 5.02% | viability, T/C [13]: 47% | viability, T/C [14]: 47.1% | viability, T/C [15]: 75.8% | viability, T/C [16]: 9.78% | viability, T/C [17]: 17.6% | viability, T/C [18]: 4.53% | viability, T/C [19]: 39.9% | viability, T/C [20]: 47.9% | viability, T/C [21]: 58.3% | viability, T/C [22]: 7.25% | viability, T/C [23]: 14.1% | viability, T/C [24]: 5.15% | viability, T/C [25]: 43.2% | viability, T/C [26]: 52.5% | viability, T/C [27]: 50.3% | viability, T/C [28]: 9.3% | viability, T/C [29]: 10.3% | viability, T/C [30]: 5.46% | viability, T/C [31]: 41% | viability, T/C [32]: 48.8% | viability, T/C [33]: 47.9% | viability, T/C [34]: 6.06% | viability, T/C [35]: 11.8% | viability, T/C [36]: 6.29%

Nc1ccn(C2OC(CO)C(O)C2(F)F)c(=O)n1 (stereo not given) + CNC(=O)c1ccc(Nc2nc(OC3CCCC3)c3c(-c4ccc5nc(C)oc5c4)c[nH]c3n2)c(OC)c1
IC50 (second compound 0.0316 µM): 200 nM | IC50 (second compound 0.1 µM): > 10000 nM | IC50 (second compound 0.316 µM): < 31.6 nM | IC50 (second compound 1 µM): < 31.6 nM | IC50 (second compound 3.16 µM): < 31.6 nM | IC50 (second compound 10 µM): < 31.6 nM | viability, T/C [1]: 65.9% | viability, T/C [2]: 51.8% | viability, T/C [3]: 50.4% | viability, T/C [4]: 40.7% | viability, T/C [5]: 50.8% | viability, T/C [6]: 51.8% | viability, T/C [7]: 53.1% | viability, T/C [8]: 52.3% | viability, T/C [9]: 49.5% | viability, T/C [10]: 43.9% | viability, T/C [11]: 57.2% | viability, T/C [12]: 49.3% | viability, T/C [13]: 49.9% | viability, T/C [14]: 50.3% | viability, T/C [15]: 50.5% | viability, T/C [16]: 40.6% | viability, T/C [17]: 47.3% | viability, T/C [18]: 51.8% | viability, T/C [19]: 43.2% | viability, T/C [20]: 47% | viability, T/C [21]: 42.1% | viability, T/C [22]: 35.8% | viability, T/C [23]: 32.8% | viability, T/C [24]: 45.6% | viability, T/C [25]: 45% | viability, T/C [26]: 43.6% | viability, T/C [27]: 38.2% | viability, T/C [28]: 33.5% | viability, T/C [29]: 50.3% | viability, T/C [30]: 39.5% | viability, T/C [31]: 49.3% | viability, T/C [32]: 46.1% | viability, T/C [33]: 39.5% | viability, T/C [34]: 31.3% | viability, T/C [35]: 36.6% | viability, T/C [36]: 39.8%

O=c1[nH]cc(F)c(=O)[nH]1 + CNC(=O)c1ccc(Nc2nc(OC3CCCC3)c3c(-c4ccc5nc(C)oc5c4)c[nH]c3n2)c(OC)c1
IC50 (second compound 0.0316 µM): > 10000 nM | IC50 (second compound 0.1 µM): > 10000 nM | IC50 (second compound 0.316 µM): > 10000 nM | IC50 (second compound 1 µM): < 31.6 nM | IC50 (second compound 3.16 µM): < 31.6 nM | IC50 (second compound 10 µM): < 31.6 nM | viability, T/C [1]: 108% | viability, T/C [2]: 99.2% | viability, T/C [3]: 101% | viability, T/C [4]: 84.8% | viability, T/C [5]: 72.9% | viability, T/C [6]: 60.6% | viability, T/C [7]: 59.1% | viability, T/C [8]: 52.6% | viability, T/C [9]: 62.2% | viability, T/C [10]: 52.7% | viability, T/C [11]: 60.4% | viability, T/C [12]: 49.8% | viability, T/C [13]: 50.9% | viability, T/C [14]: 60.5% | viability, T/C [15]: 52.4% | viability, T/C [16]: 54% | viability, T/C [17]: 60.3% | viability, T/C [18]: 47.8% | viability, T/C [19]: 43.5% | viability, T/C [20]: 50.4% | viability, T/C [21]: 41.6% | viability, T/C [22]: 52.3% | viability, T/C [23]: 54.7% | viability, T/C [24]: 47.7% | viability, T/C [25]: 44.9% | viability, T/C [26]: 44.9% | viability, T/C [27]: 48.8% | viability, T/C [28]: 48.8% | viability, T/C [29]: 48.8% | viability, T/C [30]: 35.6% | viability, T/C [31]: 45.4% | viability, T/C [32]: 37.9% | viability, T/C [33]: 46% | viability, T/C [34]: 46% | viability, T/C [35]: 47.5% | viability, T/C [36]: 45.3%
